Results taken from patent publication US10576097B2, “URLC10-derived peptide and vaccine containing same” (ONCOTHERAPY SCIENCE, INC., priority 2014, dated 2020).

Columns and labels:
[1] = system: peptide-pulsed C1R-A11 cells; assay: IFN-gamma ELISA of CTL lines and CTL clones (HLA-A*1101); format: cell-based, human
Protocol: (§1) CTLs were propagated in culture using methods similar to those disclosed by Riddell et al. (Walter E A et al., N Engl J Med 1995, 333(16): 1038-44; Riddell S R et al., Nat Med 1996, 2(2): 216-23). The CTLs were co-cultured in a total of 25 ml AIM-V medium containing 5% AS (AIM-V/5% AS) and 40 ng/ml anti-CD3 antibody with two types of Mitomycin C-treated human B lymphoblastoid cell lines at 5×10^6 cells/flask. One day after beginning of the culturing, 120 IU/ml IL-2 was added to the culture. On days 5, 8 and 11, a fresh AIM-V/5% AS medium containing 30 IU/ml IL-2 was added to the culture (Tanaka H et al., Br J Cancer 2001, 84(1): 94-9; Umano Y et al., Br J Cancer 2001, 84(8): 1052-7; Uchida N et al., Clin Cancer Res 2004, 10(24): 8577-86; Suda T et al., Cancer Sci 2006, 97(5): 411-9; Watanabe T et al., Cancer Sci 2005, 96(8): 498-506).
Dilution of CTLs was carried out to make 0.3, 1 and 3 cells/well in 96 round-bottomed microtiter plates (Nalge Nunc International). The CTLs were co-cultured with two types of Mitomycin C-treated human B lymphoblastoid cell lines at 1×10^4 cells/well in a total of 150 micro-l/well AIM-V/5% AS medium with 30 ng/ml anti-CD3 antibody and 125 IU/ml IL-2. Ten days later, IL-2 was added to the medium at 50 micro-1/well to reach a final concentration of 125 IU/ml. […]

[2] = system: COS7 cells transfected with both full-length URLC10 and the HLA-A*1101 gene; assay: Specific CTL activity against target cells expressing URLC10 and HLA-A*1101; format: cell-based, African green monkey
Description: (§2) A cDNA encoding the open-reading frame of a target gene or HLA-A*1101 was amplified by PCR. The PCR-amplified product was cloned into an expression vector. Either or both of the target gene-expressing vector and the HLA-A*1101-expressing vector were transfected into COS7, which is a cell line negative for the target gene and HLA, using Lipofectamine 2000 (Invitrogen) following the manufacturer's recommended protocol. Two days after transfection, the transfected cells were harvested using versene (Invitrogen), and used as the target cell for CTL activity assay (5×10^4 cells/well).
(§3) The CTL clone established against URLC10-A11-10-132 (SEQ ID NO: 13) was investigated for its ability to recognize target cells expressing URLC10 and the HLA-A*1101 molecule. COS7 cells transfected with both full-length URLC10 and the HLA-A*1101 gene (a specific model of target cells expressing URLC10 and the HLA-A*1101 gene) were prepared as the target cell. COS7 cells transfected with either full-length URLC10 or HLA-A*1101 were prepared as the control.

peptide-pulsed C1R-A11 = assay: In vitro CTL induction, IFN-gamma ELISPOT assay (HLA-A*1101); format: cell-based, human; conditions: CTLs induced from HLA-A*1101-positive donors, against peptide-pulsed C1R-A11, compared with control
Description: (§4) Monocyte-derived dendritic cells (DCs) were used as the antigen-presenting cell to induce a cytotoxic T lymphocyte (CTL) response against peptides presented on human leukocyte antigens (HLAs). As described in the other sections, DCs were generated in vitro (Nakahara S et al., Cancer Res 2003, 63(14): 4112-8). Specifically, peripheral-blood mononuclear cells isolated from healthy volunteers (HLA-A*1101-positive) with the Ficoll-Paque plus solution (Pharmacia) were separated by attaching to plastic tissue culture dishes (Becton Dickinson) and concentrated as a monocyte fraction. The monocyte-concentrated population was cultured in the presence of 1000 IU/ml granulocyte macrophage colony-stimulating factor (R&D System) and 1000 IU/ml interleukin(IL)-4 (R&D System) in an AIM-V medium (Invitrogen) containing 2% heat-inactivated autologous serum (AS). After seven days of culturing, the cytokine-induced DCs were pulsed with 20 micro-g/ml each of the synthesized peptides in an AIM-V medium at 37 degrees C. for three hours in the presence of 3 micro-g/ml beta 2-microglobulin. The generated cells appeared to express on their cell surface DC-associated molecules such as CD80, CD83, CD86 and HLA class II (data not shown). Next, these peptide-pulsed DCs were inactivated by X-ray irradiation (20 Gy), and mixed in a 1:20 ratio with autologous CD8^+ T cells obtained by positive selection using the CD8 Positive Isolation Kit (Dynal). These culture products were seeded in a 48-well plate (Corning). Each well was made to contain 1.5×10^4 peptide-pulsed DCs, 3×10^5 CD8^+ T cells and 10 ng/ml IL-7 (R&D System) in 0.5 ml of the AIM-V/2% AS medium. Three days later, these culture products were added with a final concentration of 20 IU/ml IL-2 (CHIRON). On day 7 and day 14, T cells were further stimulated with peptide-pulsed autologous DCs. The DCs were prepared every time by the same method as above. On day 21, after the third peptide stimulation, CTLs were examined against the peptide-pulsed C1R-A11 by a human interferon (IFN)-gamma enzyme-linked immunospot (ELISPOT) assay (Tanaka H et al., Br J Cancer 2001, 84(1): 94-9; Umano Y et al., Br J Cancer 2001, 84(8): 1052-7; Uchida N et al., Clin Cancer Res 2004, 10(24): 8577-86; Suda T et al., Cancer Sci 2006, 97(5): 411-9; Watanabe T et al., Cancer Sci 2005, 96(8): 498-506).
(§5) To examine specific CTL activity, an IFN-gamma ELISPOT assay and an IFN-gamma enzyme-linked immunosorbent assay (ELISA) were performed. Specifically, peptide-pulsed C1R-A11 (1×10^4 cells/well) was prepared as the stimulator cell. The induced CTLs, i.e., CTL lines and CTL clones, were used as the responder cell. The IFN-gamma ELISPOT assay and IFN-gamma ELISA were performed according to the manufacturer's manual.

peptide-pulsed C1R-A03 = assay: In vitro CTL induction, IFN-gamma ELISPOT assay (HLA-A*0301); format: cell-based, human; conditions: CTLs induced from HLA-A*0301-positive donors, against peptide-pulsed C1R-A03, compared with control
Description: as §4, with “(HLA-A*0301-positive)” for “(HLA-A*1101-positive)”, “C1R-A03” for “C1R-A11”
as §5, with “C1R-A03” for “C1R-A11”

[3] = system: COS7 cells transfected with both full-length URLC10 and the HLA-A*0301 gene; assay: Specific CTL activity against target cells expressing URLC10 and HLA-A*0301; format: cell-based, African green monkey
Description: as §2, with “HLA-A*0301” for “HLA-A*1101”, “HLA-A*0301-expressing” for “HLA-A*1101-expressing”, “[…],” for “COS7,”
as §3, with “URLC10-A03-11-131” for “URLC10-A11-10-132”, “31)” for “13)”, “HLA-A*0301” for “HLA-A*1101”

[4] = system: C1R-A03 cells pulsed with the respective peptide; assay: IFN-gamma ELISA of CTL lines and CTL clones (HLA-A*0301); format: cell-based, human
Protocol: as §1
Dilution of CTLs was carried out to make 1 and 10 cells/well in 96 round-bottomed microtiter plates (Nalge Nunc International). The CTLs were co-cultured with two types of Mitomycin C-treated human B lymphoblastoid cell lines at 1×10^4 cells/well in a total of 150 micro-l/well 5% AS-containing AIM-V (AIM-V/5% AS) medium with 30 ng/ml anti-CD3 antibody and 125 IU/ml IL-2. Ten days later, IL-2 was added to the medium at 50 micro-l/well to reach a final concentration of 125 IU/ml. On day 14, the CTL activity was tested, and the CTL clones were propagated using the same method as described above (Uchida N et al., Clin Cancer Res 2004, 10(24): 8577-86; Suda T et al., Cancer Sci 2006, 97(5): 411-9; Watanabe T et al., Cancer Sci 2005, 96(8): 498-506).
as §5, with “C1R-A03” for “C1R-A11”

[5] = CTL line against peptide-pulsed versus non-pulsed target cells

Sequence	IFN-gamma production of CTL clone ([1]; CTL clone by limiting dilution, against peptide-pulsed C1R-A11 cells)	IFN-gamma production of CTL line [1, 5]	CTL activity of peptide-stimulated CTL clone against control cells ([2]; COS7 cells transfected with either full-length URLC10 or HLA-A*1101)	CTL activity of peptide-stimulated CTL clone ([2]; against COS7 cells expressing both URLC10 and HLA-A*1101)	peptide-specific CTL activity (IFN-gamma production) (peptide-pulsed C1R-A11)	peptide-specific CTL activity (IFN-gamma production) (peptide-pulsed C1R-A03)	CTL activity of peptide-stimulated CTL clone against control cells ([3]; COS7 cells transfected with either full-length URLC10 or HLA-A*0301)	CTL activity of peptide-stimulated CTL clone ([3]; against COS7 cells expressing both URLC10 and HLA-A*0301)	IFN-gamma production of CTL clone ([4]; CTL clone by limiting dilution, against peptide-pulsed C1R-A03 cells)	IFN-gamma production of CTL line [4, 5]
IFPRFFMVAK (a peptide derived from URLC10) [SEQ ID NO 13, URLC10-derived 10mer peptide, start position 132]	Potent IFN-gamma production	potent IFN-gamma production	significant specific CTL activity was not detected	potent CTL activity	potent IFN-gamma production					
KIFPRFFMVAK (a peptide derived from URLC10) [SEQ ID NO 31, URLC10-derived 11mer peptide, start position 131]						potent IFN-gamma production	significant specific CTL activity was not detected	potent CTL activity	Potent IFN-gamma production	potent IFN-gamma production
